This is an account of results in BindingDB's records for doi:10.1016/j.bmc.2006.06.050 (Enscmu, 2006).

Structures are written as SMILES. Structures can show the parent of a compound that is named as a salt.

Experiment in all cases: Enzyme Inhibition Assay
In one experiment the target is T1, Aminopeptidase N (Sus scrofa, UniProt P15145).
T1 sequence (P15145 whole entry): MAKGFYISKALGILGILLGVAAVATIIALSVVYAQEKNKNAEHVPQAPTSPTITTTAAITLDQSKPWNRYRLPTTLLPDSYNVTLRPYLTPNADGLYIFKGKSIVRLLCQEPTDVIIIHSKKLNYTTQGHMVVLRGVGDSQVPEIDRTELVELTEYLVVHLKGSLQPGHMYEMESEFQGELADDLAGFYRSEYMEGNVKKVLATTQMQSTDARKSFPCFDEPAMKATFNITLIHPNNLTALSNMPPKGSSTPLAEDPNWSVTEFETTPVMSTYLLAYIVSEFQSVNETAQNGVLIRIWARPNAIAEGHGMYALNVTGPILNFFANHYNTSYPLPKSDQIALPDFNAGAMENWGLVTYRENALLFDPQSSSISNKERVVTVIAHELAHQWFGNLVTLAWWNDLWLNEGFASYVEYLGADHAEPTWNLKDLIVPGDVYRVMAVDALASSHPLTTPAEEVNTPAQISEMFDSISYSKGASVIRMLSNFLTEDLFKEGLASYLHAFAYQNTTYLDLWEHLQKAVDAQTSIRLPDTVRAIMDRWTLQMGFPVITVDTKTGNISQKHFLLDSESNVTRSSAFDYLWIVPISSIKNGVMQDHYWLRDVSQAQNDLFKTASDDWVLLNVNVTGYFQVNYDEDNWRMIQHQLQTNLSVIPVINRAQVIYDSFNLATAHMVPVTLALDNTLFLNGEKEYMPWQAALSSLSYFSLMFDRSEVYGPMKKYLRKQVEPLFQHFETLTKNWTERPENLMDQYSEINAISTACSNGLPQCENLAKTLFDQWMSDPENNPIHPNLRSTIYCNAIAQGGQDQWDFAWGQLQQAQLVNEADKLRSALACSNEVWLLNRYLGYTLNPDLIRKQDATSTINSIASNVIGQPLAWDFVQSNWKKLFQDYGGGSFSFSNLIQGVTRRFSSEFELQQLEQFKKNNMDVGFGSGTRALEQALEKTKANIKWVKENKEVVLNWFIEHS

The target in experiment [1] is T2, Leukotriene A-4 hydrolase (Homo sapiens, UniProt P09960).
T2 sequence (P09960 whole entry): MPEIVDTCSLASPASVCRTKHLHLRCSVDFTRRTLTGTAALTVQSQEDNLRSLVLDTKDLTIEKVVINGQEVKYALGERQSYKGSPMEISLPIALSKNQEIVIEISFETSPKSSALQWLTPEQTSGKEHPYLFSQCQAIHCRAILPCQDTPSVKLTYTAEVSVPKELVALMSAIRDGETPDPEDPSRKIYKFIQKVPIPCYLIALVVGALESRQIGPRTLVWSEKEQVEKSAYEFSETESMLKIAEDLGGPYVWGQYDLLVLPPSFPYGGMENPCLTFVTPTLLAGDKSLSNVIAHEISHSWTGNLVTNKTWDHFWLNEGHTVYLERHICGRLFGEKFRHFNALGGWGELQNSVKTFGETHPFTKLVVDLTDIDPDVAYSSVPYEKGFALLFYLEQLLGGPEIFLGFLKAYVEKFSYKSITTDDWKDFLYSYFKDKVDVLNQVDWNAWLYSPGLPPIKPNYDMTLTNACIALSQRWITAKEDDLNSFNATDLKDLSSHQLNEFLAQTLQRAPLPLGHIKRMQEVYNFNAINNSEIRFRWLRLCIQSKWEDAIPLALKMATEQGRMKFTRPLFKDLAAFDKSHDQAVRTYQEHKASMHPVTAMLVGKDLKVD

The target in experiment [2] is Bacterial leucyl aminopeptidase (Vibrio proteolyticus, UniProt Q01693).
Sequence of Bacterial leucyl aminopeptidase (Q01693 whole entry): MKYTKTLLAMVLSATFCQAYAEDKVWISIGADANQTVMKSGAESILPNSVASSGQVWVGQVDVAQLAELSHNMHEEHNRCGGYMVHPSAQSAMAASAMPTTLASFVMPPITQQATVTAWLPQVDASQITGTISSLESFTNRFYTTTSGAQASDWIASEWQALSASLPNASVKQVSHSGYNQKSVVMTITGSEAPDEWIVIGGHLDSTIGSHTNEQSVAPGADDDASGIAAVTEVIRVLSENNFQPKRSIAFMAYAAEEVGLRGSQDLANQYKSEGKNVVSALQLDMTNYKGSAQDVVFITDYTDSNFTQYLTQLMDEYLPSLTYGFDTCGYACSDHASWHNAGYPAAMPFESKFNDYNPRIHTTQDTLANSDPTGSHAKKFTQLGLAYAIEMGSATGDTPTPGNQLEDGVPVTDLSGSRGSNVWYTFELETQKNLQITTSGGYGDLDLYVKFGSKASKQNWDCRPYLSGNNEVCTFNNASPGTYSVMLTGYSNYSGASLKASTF

Take `NC1Cc2ccccc2C/C1=N/OCc1ccccc1` (stereo not given) [(3Z)-3-[(benzyloxy)imino]-1,2,3,4-tetrahydronaphthalen-2-amine hydrochloride]: the IC50 on Aminopeptidase N was 790 µM; in experiment [1], > 1000 µM; in experiment [2] (pH 8, 30 °C) it was 210 µM.
`NN1Cc2ccccc2CC1=O` [2-amino-1,2,3,4-tetrahydroisoquinolin-3-one]: the IC50 was > 1000 µM against Aminopeptidase N, > 1000 µM in experiment [1] and 740 µM in experiment [2].
On Aminopeptidase N, `CO/N=C1/Cc2ccccc2CC1N` (stereo not given) [(3Z)-3-(methoxyimino)-1,2,3,4-tetrahydronaphthalen-2-amine hydrochloride] gave a Ki of 130 µM. In addition, the IC50 was > 1000 µM in experiment [1] and 800 µM in experiment [2] (pH 8, 30 °C).
On to `O=C1Cc2ccccc2CN1O` [2-hydroxy-1,2,3,4-tetrahydroisoquinolin-3-one], for which the IC50 (on Aminopeptidase N; in experiment [1]) was > 1000 µM throughout. In experiment [2], this compound had a Ki of 4 µM.
In the case of `O=C1CCc2ccccc2C1` [1,2,3,4-tetrahydronaphthalen-2-one], the IC50 (against Aminopeptidase N; in experiment [1]; in experiment [2]) was > 1000 µM in each case.
Regarding `NC1Cc2ccccc2CC1C(=O)NO` (stereo not given) [3-amino-N-hydroxy-1,2,3,4-tetrahydronaphthalene-2-carboxamide hydrochloride], the Ki (at Aminopeptidase N; in experiment [2]) was 4 µM each time. Besides, the IC50 in experiment [1] is > 1000 µM.
With `NC1Cc2ccccc2NC1=O` (stereo not given) [3-amino-1,2,3,4-tetrahydroquinolin-2-one hydrochloride], the IC50 (against Aminopeptidase N; in experiment [1]) was > 1000 µM throughout. For the same compound, the inhibition constant (Ki) in experiment [2] is 80 µM.
For `NC1Cc2ccccc2C/C1=N/OCCCCCc1ccccc1` (stereo not given) [(3Z)-3-{[(5-phenylpentyl)oxy]imino}-1,2,3,4-tetrahydronaphthalen-2-amine hydrochloride], the Ki at Aminopeptidase N was 80 µM; in experiment [1], 30 µM. Also, it took 130 µM to reach half-maximal inhibition in experiment [2] (pH 8, 30 °C) (IC50).
With `NC1Cc2ccccc2C/C1=N/OCCCCc1ccccc1` (stereo not given) [(3Z)-3-[(4-phenylbutoxy)imino]-1,2,3,4-tetrahydronaphthalen-2-amine hydrochloride], the Ki amounted to 55 µM on Aminopeptidase N and 8 µM in experiment [1]. In experiment [2] (pH 8, 30 °C), this compound gave an IC50 of 110 µM.
`NC1Cc2ccccc2C/C1=N/OCCCc1ccccc1` (stereo not given) [(3Z)-3-[(3-phenylpropoxy)imino]-1,2,3,4-tetrahydronaphthalen-2-amine hydrochloride]: the Ki was found to be 110 µM at Aminopeptidase N and 6 µM in experiment [1]. The IC50 in experiment [2] (pH 8, 30 °C) stood at 300 µM.
In the case of `NC1Cc2ccccc2C/C1=N/OCCc1ccccc1` (stereo not given) [(3Z)-3-[(2-phenylethoxy)imino]-1,2,3,4-tetrahydronaphthalen-2-amine hydrochloride], the Ki on Aminopeptidase N came out at 260 µM. In addition, the IC50 in experiment [1] is 500 µM; in experiment [2] (pH 8, 30 °C), 170 µM.
Take `CC(=O)C1Cc2ccccc2CC1N` (stereo not given) [1-(3-amino-1,2,3,4-tetrahydronaphthalen-2-yl)ethan-1-one hydrochloride]: the IC50 is > 1000 µM on Aminopeptidase N; 750 µM in experiment [1]; 500 µM in experiment [2] (pH 8, 30 °C).
As to `NC1Cc2ccccc2CC1P(=O)(O)O` (stereo not given) [3-amino-1,2,3,4-tetrahydronaphthalene-2-phosphonic acid hydrochloride], the IC50 was 500 µM at Aminopeptidase N, > 1000 µM in experiment [1] and 150 µM in experiment [2].
Regarding `O=C1Cc2ccccc2CO1` [3,4-dihydro-1H-2-benzopyran-3-one], the IC50 (on Aminopeptidase N; in experiment [1]; in experiment [2]) was > 1000 µM each time.
On to `NC1Cc2ccccc2CC1=O` (stereo not given) [3-amino-1,2,3,4-tetrahydronaphthalen-2-one hydrochloride], for which the IC50 in experiment [1] is > 1000 µM; in experiment [2] (pH 8, 30 °C) it was 130 µM.
As for `O=C1Cc2ccccc2CS1` [3,4-dihydro-1H-2-benzothiopyran-3-one], the IC50 (against Aminopeptidase N; in experiment [1]) was > 1000 µM throughout. This compound returned a Ki in experiment [2] of 4 µM.
For `NC1CCc2ccccc2C1` [(2S)-1,2,3,4-Tetrahydro-naphthalen-2-ylamine], the IC50 on Aminopeptidase N is > 1000 µM; in experiment [1], > 1000 µM; in experiment [2] (pH 8, 30 °C), > 1000 µM.
